ChEMBL document CHEMBL5625187, “A facile and selective derivatization approach on kynurenine-NH2 in daptomycin, leading to the discovery of hexakynomycin to combat multidrug-resistant Gram-positive pathogens especially daptomycin-resistant bacteria” (Eur J Med Chem, 2023)

How the values were obtained:
Format in all cases: functional
[1] = system: Staphylococcus aureus; experiment: Antibacterial activity against vancomycin-intermediate resistant Staphylococcus aureus Mu 50 assessed as reduction in microbial growth incubated for 24 hrs by broth microdilution method
[2] = system: Staphylococcus aureus; experiment: Antibacterial activity against methicillin-susceptible Staphylococcus aureus Newman ATCC 25904 assessed as reduction in microbial growth incubated for 24 hrs by broth microdilution method
[3] = system: Staphylococcus aureus; experiment: Potency index, ratio of daptomycin MIC to test compound MIC for antibacterial activity against methicillin-susceptible Staphylococcus aureus Newman ATCC 25904
[4] = system: Enterococcus faecium; experiment: Antibacterial activity against glycopeptide-resistant Enterococcus faecium Efm-HS-0649 assessed as reduction in microbial growth incubated for 24 hrs by broth microdilution method
[5] = system: Enterococcus faecium; experiment: Potency index, ratio of daptomycin MIC to test compound MIC for antibacterial activity against glycopeptide-resistant Enterococcus faecium Efm-HS-0649
[6] = system: Staphylococcus aureus; experiment: Antibacterial activity against methicillin-resistant Staphylococcus aureus USA300 assessed as reduction in microbial growth incubated for 24 hrs by broth microdilution method

CCCCCCCCCNc1ccccc1C(=O)C[C@@H]1NC(=O)[C@H]([C@H](C)CC(=O)O)NC(=O)[C@@H](CO)NC(=O)CNC(=O)[C@H](CC(=O)O)NC(=O)[C@@H](C)NC(=O)[C@H](CC(=O)O)NC(=O)[C@H](CCCN)NC(=O)CNC(=O)[C@@H](NC(=O)[C@H](CC(=O)O)NC(=O)[C@@H](CC(N)=O)NC(=O)[C@H](Cc2c[nH]c3ccccc23)NC(=O)CCCCCCCCC)[C@@H](C)OC1=O (single isomer, unassigned)
MIC [1]: 4 µg/mL | MIC [2]: 2 µg/mL | Ratio [3]: 2 | MIC [4]: 1 µg/mL | Ratio [5]: 2 | MIC [6]: 1 µg/mL

C#CC[S+](C)CCCNc1ccccc1C(=O)C[C@@H]1NC(=O)[C@H]([C@H](C)CC(=O)O)NC(=O)[C@@H](CO)NC(=O)CNC(=O)[C@H](CC(=O)O)NC(=O)[C@@H](C)NC(=O)[C@H](CC(=O)O)NC(=O)[C@H](CCCN)NC(=O)CNC(=O)[C@@H](NC(=O)[C@H](CC(=O)O)NC(=O)[C@@H](CC(N)=O)NC(=O)[C@H](Cc2c[nH]c3ccccc23)NC(=O)CCCCCCCCC)[C@@H](C)OC1=O (some centres not stated)
MIC [1]: > 128 µg/mL | MIC [2]: 128 µg/mL | MIC [4]: 128 µg/mL | MIC [6]: 128 µg/mL

CCCCCCCCCC(=O)N[C@@H](Cc1c[nH]c2ccccc12)C(=O)N[C@H](CC(N)=O)C(=O)N[C@@H](CC(=O)O)C(=O)N[C@@H]1C(=O)NCC(=O)N[C@@H](CCCN)C(=O)N[C@@H](CC(=O)O)C(=O)N[C@H](C)C(=O)N[C@@H](CC(=O)O)C(=O)NCC(=O)N[C@H](CO)C(=O)N[C@@H]([C@H](C)CC(=O)O)C(=O)N[C@@H](CC(=O)c2ccccc2NCCCC)C(=O)O[C@@H]1C (single isomer, unassigned)
MIC [1]: 4 µg/mL | MIC [2]: 0.5 µg/mL | Ratio [3]: 2 | MIC [4]: 1 µg/mL | Ratio [5]: 2 | MIC [6]: 0.5 µg/mL

CCCCCCCCCC(=O)N[C@@H](Cc1c[nH]c2ccccc12)C(=O)N[C@H](CC(N)=O)C(=O)N[C@@H](CC(=O)O)C(=O)N[C@@H]1C(=O)NCC(=O)N[C@@H](CCCN)C(=O)N[C@@H](CC(=O)O)C(=O)N[C@H](C)C(=O)N[C@@H](CC(=O)O)C(=O)NCC(=O)N[C@H](CO)C(=O)N[C@@H]([C@H](C)CC(=O)O)C(=O)N[C@@H](CC(=O)c2ccccc2NCCC2C(=O)C=CC2=O)C(=O)O[C@@H]1C (single isomer, unassigned)
MIC [1]: > 128 µg/mL | MIC [2]: 128 µg/mL | MIC [4]: 128 µg/mL | MIC [6]: 128 µg/mL

CCCCCCCCCC(=O)N[C@@H](Cc1c[nH]c2ccccc12)C(=O)N[C@H](CC(N)=O)C(=O)N[C@@H](CC(=O)O)C(=O)N[C@@H]1C(=O)NCC(=O)N[C@@H](CCCN)C(=O)N[C@@H](CC(=O)O)C(=O)N[C@H](C)C(=O)N[C@@H](CC(=O)O)C(=O)NCC(=O)N[C@H](CO)C(=O)N[C@@H]([C@H](C)CC(=O)O)C(=O)N[C@@H](CC(=O)c2ccccc2NCC(=O)O)C(=O)O[C@@H]1C
MIC [1]: 128 µg/mL | MIC [2]: 32 µg/mL | MIC [4]: 128 µg/mL | MIC [6]: 32 µg/mL

CCCCCCCCCC(=O)N[C@@H](Cc1c[nH]c2ccccc12)C(=O)N[C@H](CC(N)=O)C(=O)N[C@@H](CC(=O)O)C(=O)N[C@@H]1C(=O)NCC(=O)N[C@@H](CCCN)C(=O)N[C@@H](CC(=O)O)C(=O)N[C@H](C)C(=O)N[C@@H](CC(=O)O)C(=O)NCC(=O)N[C@H](CO)C(=O)N[C@@H]([C@H](C)CC(=O)O)C(=O)N[C@@H](CC(=O)c2ccccc2NCCCSC)C(=O)O[C@@H]1C (single isomer, unassigned)
MIC [1]: 4 µg/mL | MIC [2]: 1 µg/mL | MIC [4]: 1 µg/mL | MIC [6]: 0.5 µg/mL

CCCCCCCCCC(=O)N[C@@H](Cc1c[nH]c2ccccc12)C(=O)N[C@H](CC(N)=O)C(=O)N[C@@H](CC(=O)O)C(=O)N[C@@H]1C(=O)NCC(=O)N[C@@H](CCCN)C(=O)N[C@@H](CC(=O)O)C(=O)N[C@H](C)C(=O)N[C@@H](CC(=O)O)C(=O)NCC(=O)N[C@H](CO)C(=O)N[C@@H]([C@H](C)CC(=O)O)C(=O)N[C@@H](CC(=O)c2ccccc2NCCCCCCCC)C(=O)O[C@@H]1C (single isomer, unassigned)
MIC [1]: 4 µg/mL | MIC [2]: 1 µg/mL | Ratio [3]: 2 | MIC [4]: 0.5 µg/mL | Ratio [5]: 2 | MIC [6]: 1 µg/mL

CCCCCCCCCC(=O)N[C@@H](Cc1c[nH]c2ccccc12)C(=O)N[C@H](CC(N)=O)C(=O)N[C@@H](CC(=O)O)C(=O)N[C@@H]1C(=O)NCC(=O)N[C@@H](CCCN)C(=O)N[C@@H](CC(=O)O)C(=O)N[C@H](C)C(=O)N[C@@H](CC(=O)O)C(=O)NCC(=O)N[C@H](CO)C(=O)N[C@@H]([C@H](C)CC(=O)O)C(=O)N[C@@H](CC(=O)c2ccccc2NCC2CCCCC2)C(=O)O[C@@H]1C (single isomer, unassigned)
MIC [1]: 4 µg/mL | MIC [2]: 1 µg/mL | MIC [4]: 1 µg/mL | MIC [6]: 0.5 µg/mL

CCCCCCCCCC(=O)N[C@@H](Cc1c[nH]c2ccccc12)C(=O)N[C@H](CC(N)=O)C(=O)N[C@@H](CC(=O)O)C(=O)N[C@@H]1C(=O)NCC(=O)N[C@@H](CCCN)C(=O)N[C@@H](CC(=O)O)C(=O)N[C@H](C)C(=O)N[C@@H](CC(=O)O)C(=O)NCC(=O)N[C@H](CO)C(=O)N[C@@H]([C@H](C)CC(=O)O)C(=O)N[C@@H](CC(=O)c2ccccc2NCCC[S+](C)[O-])C(=O)O[C@@H]1C (some centres not stated)
MIC [1]: > 128 µg/mL | MIC [2]: 128 µg/mL | MIC [4]: 128 µg/mL | MIC [6]: 128 µg/mL
